Measurements as given in patent US9169260B2 (MERCK SHARP & DOHME CORP., priority 2011, dated 2015).

Molecular target: GST tagged IRAK-4 (Homo sapiens (Human), UniProt Q9NWZ3)
Assay: IRAK-4 Kinase Assay (IMAP fluorescence polarization)
Type: biochemical
Details: 100 μM ATP, 30 minutes at 25° C.
In short: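 Activity was read by IMAP fluorescence polarization, where phosphopeptide binding to M(III) nanoparticles raises FP. The 30-minute, 25° C reaction used 100 μM ATP, 100 nM RP7030 substrate and 0.5 nM GST-IRAK-4 in pH 7.2 Tris buffer with MgCl2, DTT and Tween 20.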

Sequence of GST tagged IRAK-4 (Q9NWZ3 whole entry): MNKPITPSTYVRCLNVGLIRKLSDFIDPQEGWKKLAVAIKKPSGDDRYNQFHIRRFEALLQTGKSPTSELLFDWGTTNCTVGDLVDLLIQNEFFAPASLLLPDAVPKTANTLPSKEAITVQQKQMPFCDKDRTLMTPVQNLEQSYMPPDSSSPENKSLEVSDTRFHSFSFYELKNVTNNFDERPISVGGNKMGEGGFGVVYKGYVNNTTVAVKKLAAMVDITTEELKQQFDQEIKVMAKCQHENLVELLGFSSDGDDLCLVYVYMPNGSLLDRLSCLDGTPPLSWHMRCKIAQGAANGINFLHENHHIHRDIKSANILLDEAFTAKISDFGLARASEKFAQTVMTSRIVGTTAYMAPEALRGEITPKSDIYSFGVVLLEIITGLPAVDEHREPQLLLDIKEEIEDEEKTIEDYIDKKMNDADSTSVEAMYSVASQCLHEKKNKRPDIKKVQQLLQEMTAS

Row | SMILES | IC50 (μM) [µM] | IC50 [µM]
1 | Cc1ccc(-n2nc(C3CCN(S(C)(=O)=O)CC3)cc2NC(=O)c2cnn3cccnc23)nc1C [Example 174, N-(1-(5,6-dimethylpyridin-2-yl)-3-(1-(methylsulfonyl)piperidin-4-yl)-1H-pyrazol-5-yl)pyrazolo[1,5-a]pyrimidine-3-carboxamide] | < 1 | –
2 | Cc1ccc(-n2nc(C3CCN(Cc4cncs4)CC3)cc2NC(=O)c2cnn3cccnc23)cc1 [Example 229, N-{1-(4-methylphenyl)-3-[1-(1,3-thiazol-5-ylmethyl)piperidin-4-yl]-1H-pyrazol-5-yl}pyrazolo[1,5-a]pyrimidine-3-carboxamide] | – | < 0.1
3 | Cc1ccc(-n2nc(C3CCN(C4CCN(c5ccc(F)cc5)C4)CC3)cc2NC(=O)c2cnn3cccnc23)nc1 (stereo not shown) [Example 266, N-[3-{1-[1-(4-fluorophenyl)pyrrolidin-3-yl]piperidin-4-yl]-1-(5-methylpyridin-2-yl)-1H-pyrazol-5-yl}pyrazolo-[1,5-a]pyrimidine-3-carboxamide] | – | < 0.1
4 | Cc1ccc(-n2nc(C3CCN(C4CN(S(=O)(=O)CF)C4)CC3)cc2NC(=O)c2cnn3cccnc23)cc1 [Example 247, N-[3-(1-{1-[(fluoromethyl)sulfonyl]azetidin-3-yl]piperidin-4-yl)-1-(4-methylphenyl)-1H-pyrazol-5-yl}pyrazolo[1,5-a]pyrimidine-3-carboxamide] | < 1 | –
5 | Cc1cc(F)ccc1-n1nc(C2CCNCC2)cc1NC(=O)c1cnn2cccnc12 [Example 68, N-(1-(4-fluoro-2-methylphenyl)-3-(piperidin-4-yl)-1H-pyrazol-5-yl)pyrazolo[1,5-a]pyrimidine-3-carboxamide] | > 1 | –
6 | CON=C1CCC(c2cc(NC(=O)c3cnn4cccnc34)n(-c3ccc(C)cc3)n2)CC1 (stereo not shown) [Example 3, N-(3-(4-(methoxyimino)cyclohexyl)-1-(p-tolyl)-1H-pyrazol-5-yl)pyrazolo[1,5-a]pyrimidine-3-carboxamide] | < 1 | –
7 | [2H]C([2H])([2H])c1ccc(-n2nc(N3CCN(S(C)(=O)=O)CC3)cc2NC(=O)c2cnn3cccnc23)nc1 [Example 200, N-(1-(5-trideuteromethylpyridin-2-yl)-3-(4-(methylsulfonyl)piperazin-1-yl)-1H-pyrazol-5-yl)pyrazolo[1,5-a]pyrimidine-3-carboxamide] | – | < 0.1
8 | CC(=O)c1ccc(-n2nc(C3CCN(S(C)(=O)=O)CC3)cc2NC(=O)c2cnn3cccnc23)cc1 [Example 90, N-(1-(4-acetylphenyl)-3-(1-(methylsulfonyl)piperidin-4-yl)-1H-pyrazol-5-yl)pyrazolo[1,5-a]pyrimidine-3-carboxamide] | < 1 | –

Second part, the compound after the results:

Row | IC50 (μM) [µM] | IC50 [µM] | SMILES
9 | < 1 | – | O=C(Nc1cc(C2CCNCC2)nn1-c1ccc(F)cc1)c1cnn2cccnc12 [Example 10, N-(1-(4-fluorophenyl)-3-(piperidin-4-yl)-1H-pyrazol-5-yl)pyrazolo[1,5-a]pyrimidine-3-carboxamide]
10 | < 1 | – | Cc1ccc(-n2nc(-c3conc3C)cc2NC(=O)c2cnn3cccnc23)cc1 [Example 334, N-[3-(3-methylisoxazol-4-yl)-1-(4-methylphenyl)-1H-pyrazol-5-yl]pyrazolo[1,5-a]pyrimidine-3-carboxamide]
11 | < 1 | – | CS(=O)(=O)N1CCC(c2cc(NC(=O)c3cnn4cccnc34)n(-c3ccc(Cl)cc3F)n2)CC1 [Example 29, N-(1-(4-chloro-2-fluorophenyl)-3-(1-(methylsulfonyl)piperidin-4-yl)-1H-pyrazol-5-yl)pyrazolo[1,5-a]pyrimidine-3-carboxamide]
12 | – | < 0.1 | COCC(C)N1CCC(c2cc(NC(=O)c3cnn4cccnc34)n(-c3ccc(C)cc3)n2)CC1 (stereo not shown) [Example 211, N-(3-(1-(1-methoxypropan-2-yl)piperidin-4-yl)-1-(p-tolyl)-1H-pyrazol-5-yl)pyrazolo[1,5-a]pyrimidine-3-carboxamide]
13 | < 1 | – | Cc1ccc(-n2nc(C3CCC(N(C)C)CC3)cc2NC(=O)c2cnn3cccnc23)cc1 (stereo not shown) [Example 5, N-(3-(4-(dimethylamino)cyclohexyl)-1-(p-tolyl)-1,4-pyrazol-5-yl)pyrazolo[1,5-a]pyrimidine-3-carboxamide]
